Earlier results in patent US20160220687A1, “METALLOPROTEINASE-CLEAVABLE ALPHA-AMANITIN-DENDRIMER CONJUGATES AND METHOD OF TREATING CANCER” (priority 2015, published 2016).

Key:
[1] = tested on: MCF7 breast cancer cells
[2] = tested on: advanced gastric cancer; settings: patients with advanced gastric cancer, compared to placebo
[3] = tested on: liver and kidney; settings: intravenous or intraperitoneal administration
[4] = tested on: B16F10 melanoma cells; settings: mice injected with B16F10 melanoma cells

N#Cc1ccc(C(c2ccc(C#N)cc2)n2cncn2)cc1 [Letrozole]
MMP2 and MMP9 levels [1]: efficient reduction

CNC(=O)[C@@H](NC(=O)[C@H](CC(C)C)[C@H](O)C(=O)NO)C(C)(C)C [Marimastat]
disease free survival [2]: significant improvement | overall survival [2]: significant improvement

CC[C@H](C)[C@@H]1NC(=O)CNC(=O)[C@@H]2Cc3c([nH]c4cc(O)ccc34)[S@+]([O-])C[C@H](NC(=O)CNC1=O)C(=O)N[C@@H](CC(N)=O)C(=O)N1C[C@H](O)C[C@H]1C(=O)N[C@@H]([C@@H](C)[C@@H](O)CO)C(=O)N2 [alpha-amanitin]
pathological effects on the liver and kidney [3]: serious pathological effects on the liver and kidney

TIMP1: an inhibitor of MMP9
number of pulmonary metastases [4]: reduced
